# Source: patent US9765092B2, “Tricyclic piperidine compounds” (ACTELION PHARMACEUTICALS LTD, priority 2013, dated 2017)
# Biological target: human TPH1 (Homo sapiens (Human), UniProt P17752)
# Experiment: Biochemical in vitro assay using fluorescence readout (TPH1 inhibition)
# Settings: full length human TPH1, 40 μM L-tryptophan, 15° C., 60 minutes, fluorescence at 540 nm; mean if determined several times
# Chain of human TPH1 (P17752 whole entry): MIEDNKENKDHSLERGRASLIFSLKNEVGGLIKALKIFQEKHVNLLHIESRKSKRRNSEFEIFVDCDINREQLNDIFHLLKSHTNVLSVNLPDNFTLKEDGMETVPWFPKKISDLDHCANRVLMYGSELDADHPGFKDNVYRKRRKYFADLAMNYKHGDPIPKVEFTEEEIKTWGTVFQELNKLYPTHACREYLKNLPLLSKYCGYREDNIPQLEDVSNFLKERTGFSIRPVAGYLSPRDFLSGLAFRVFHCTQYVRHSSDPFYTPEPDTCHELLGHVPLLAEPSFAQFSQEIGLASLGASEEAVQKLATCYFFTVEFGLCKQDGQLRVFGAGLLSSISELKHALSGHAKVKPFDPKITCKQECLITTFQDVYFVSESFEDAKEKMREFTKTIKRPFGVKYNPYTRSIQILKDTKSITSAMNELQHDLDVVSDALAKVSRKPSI
row,SMILES,IC50 [nM]
1,"Cc1nn2c3c(nc2s1)CCN(C(=O)COc1ccc(N2CCOCC2)nc1Cl)C3c1cc(-c2nn[nH]n2)cs1 (stereo not drawn) [Example 1.63.1, 1-(5-(4-(2H-Tetrazol-5-yl)thiophen-2-yl)-2-methyl-7,8-dihydro-[1,3,4]-thiadiazolo-[2′,3′:2,3]imidazo[4,5-c]pyridin-6(5H)-yl)-2-((2-chloro-6-morpholinopyridin-3-yl)oxy)ethanone]",23
2,"COCCN(C)c1ccc(OCC(=O)N2CCc3nc4sc(C)nn4c3C2c2ccc(Cl)cc2F)c(Cl)n1 (stereo not drawn) [Example 1.4.14, 1-(5-(4-Chloro-2-fluorophenyl)-2-methyl-7,8-dihydro-[1,3,4]thiadiazolo[2′,3′:2,3]imidazo[4,5-c]pyridin-6(5H)-yl)-2-((2-chloro-6-((2-methoxyethyl)(methyl)-amino)pyridin-3-yl)oxy)ethanone]",3
3,"Cc1nn2c3c(nc2s1)CCN(C(=O)COc1ccc(N2CC(F)(F)C2)nc1Cl)C3c1ccc(Cl)cc1F (stereo not drawn) [Example 1.4.18, 1-(5-(4-Chloro-2-fluorophenyl)-2-methyl-7,8-dihydro-[1,3,4]thiadiazolo[2′,3′:2,3]imidazo[4,5-c]pyridin-6(5H)-yl)-2-((2-chloro-6-(3,3-difluoroazetidin-1-yl)-pyridin-3-yl)oxy)ethanone]",3
4,"COC(=O)CCS(=O)(=O)c1ccc(OCC(=O)N2CCc3nc4sc(C)nn4c3C2c2ccc(Cl)cc2F)c(Cl)n1 (stereo not drawn) [Example 1.4.11, Methyl 3-((6-chloro-5-(2-(5-(4-chloro-2-fluorophenyl)-2-methyl-7,8-dihydro-[1,3,4]thiadiazolo[2′,3′:2,3]imidazo[4,5-c]pyridin-6(5H)-yl)-2-oxoethoxy)pyridin-2-yl)sulfonyl)propanoate]",57

# Same assay, conditions: human TPH1, fluorescence readout
row,SMILES,IC50 [nM]
1,"CCOC(=O)c1ncc(C2c3c(nc4sc(C)nn34)CCN2C(=O)COc2ccc(N3CCOCC3)nc2Cl)s1 (stereo not drawn) [Example 1.30.1, Ethyl 5-(6-(2-((2-chloro-6-morpholinopyridin-3-yl)oxy)acetyl)-2-methyl-5,6,7,8-tetrahydro-[1,3,4]thiadiazolo [2′,3′:2,3]imidazo[4,5-c]pyridin-5-yl)thiazole-2-carboxylate]",9
2,"Cc1nn2c3c(nc2s1)CCN(C(=O)COc1ccc(C(=O)N(C)C)nc1Cl)C3c1cccc(F)c1F (stereo not drawn) [Example 1.62.1, 6-chloro-5-(2-(5-(2,3-difluorophenyl)-2-methyl-7,8-dihydro-[1,3,4]thiadiazolo[2′,3′:2,3]imidazo[4,5-c]pyridin-6(5H)-yl)-2-oxoethoxy)-N,N-dimethylpicolinamide]",65
3,"Cc1nn2c3c(nc2s1)CCN(C(=O)COc1ccc(C(=O)N(C)C)nc1Cl)C3c1sccc1F (stereo not drawn) [Example 1.23.6, 6-chloro-5-(2-(5-(3-fluorothiophen-2-yl)-2-methyl-7,8-dihydro-[1,3,4]thiadiazolo[2′,3′:2,3]imidazo[4,5-c]pyridin-6(5H)-yl)-2-oxoethoxy)-N,N-dimethylpicolinamide]",5
4,"Cc1nn2c3c(nc2s1)CCN(C(=O)COc1cc(F)cnc1Cl)C3c1ncc(C2CC2)cc1F (stereo not drawn) [Example 1.14.7, 2-((2-chloro-5-fluoropyridin-3-yl)oxy)-1-(5-(5-cyclopropyl-3-fluoropyridin-2-yl)-2-methyl-7,8-dihydro-[1,3,4]thiadiazolo [2′,3′:2,3]imidazo[4,5-c]pyridin-6(5H)-yl)ethanone]",25
5,"Cc1cnc(C2c3c(nc4sc(C)nn34)CCN2C(=O)COc2ccc(C#N)cc2Cl)c(F)c1 (stereo not drawn) [Example 1.31.4, 3-chloro-4-(2-(5-(3-fluoro-5-methylpyridin-2-yl)-2-methyl-7,8-dihydro-[1,3,4]thiadiazolo[2′,3′:2,3]imidazo[4,5-c]pyridin-6(5H)-yl)-2-oxoethoxy)benzonitrile]",49
6,"Cc1nn2c3c(nc2s1)CCN(C(=O)COc1ccc(C(=O)N(C)C)nc1Cl)C3c1cncs1 (stereo not drawn) [Example 1.39.2, 6-chloro-N,N-dimethyl-5-(2-(2-methyl-5-(thiazol-5-yl)-7,8-dihydro-[1,3,4]thiadiazolo[2′,3′:2,3]imidazo[4,5-c]pyridin-6(5H)-yl)-2-oxoethoxy)picolinamide]",69
7,"Cc1ccc(OCC(=O)N2CCc3nc4sccn4c3C2c2nc3ccccc3s2)cc1 (stereo not drawn) [Example 6.12.1, 1-(5-(benzo[d]thiazol-2-yl)-7,8-dihydrothiazolo-[2′,3′:2,3]imidazo[4,5-c]pyridin-6(5H)-yl)-2-(p-tolyloxy)ethanone]",26
8,"CNC(=O)c1cc(F)c(C2c3c(nc4sc(C)nn34)CCN2C(=O)COc2ccc(NS(C)(=O)=O)nc2Cl)s1 (stereo not drawn) [Example 1.25.7, 5-(6-(2-((2-chloro-6-(methylsulfonamido)pyridin-3-yl)oxy)acetyl)-2-methyl-5,6,7,8-tetrahydro-[1,3,4]thiadiazolo [2′,3′:2,3]imidazo[4,5-c]pyridin-5-yl)-4-fluoro-N-methylthiophene-2-carboxamide]",7
9,"CCc1nc(NS(C)(=O)=O)ccc1OCC(=O)N1CCc2nc3sc(C)nn3c2C1c1ccc(Cl)cc1F (stereo not drawn) [Example 1.4.51, N-(5-(2-(5-(4-chloro-2-fluorophenyl)-2-methyl-7,8-dihydro-[1,3,4]thiadiazolo[2′,3′:2,3]imidazo[4,5-c]-pyridin-6(5H)-yl)-2-oxoethoxy)-6-ethylpyridin-2-yl)methanesulfonamide]",12
10,"COc1ccc(C2c3c(nc4sc(C)nn34)CCN2C(=O)COc2ccc(CN3CCOCC3)nc2Cl)c(F)c1 (stereo not drawn) [Example 1.3.2, 2-((2-chloro-6-(morpholinomethyl)pyridin-3-yl)oxy)-1-(5-(2-fluoro-4-methoxyphenyl)-2-methyl-7,8-dihydro-[1,3,4]thiadiazolo[2′,3′:2,3]imidazo[4,5-c]pyridin-6(5H)-yl)ethanone]",9
11,"CCc1nc(N2CCCS2(=O)=O)ccc1OCC(=O)N1CCc2nc3sc(CF)nn3c2C1c1sc(C)nc1C (stereo not drawn) [Example 7.4.3, 1-(5-(2,4-dimethylthiazol-5-yl)-2-(fluoromethyl)-7,8-dihydro-[1,3,4]thiadiazolo[2′,3′:2,3]imidazo[4,5-c]pyridin-6(5H)-yl)-2-((6-(1,1-dioxidoisothiazolidin-2-yl)-2-ethylpyridin-3-yl)oxy)ethanone]",8
12,"Cc1nn2c3c(nc2s1)CCN(C(=O)COc1ccc(N2CCOCC2)nc1Cl)C3c1nc(C(=O)N(C)C)cs1 (stereo not drawn) [Example 1.18.1, 2-(6-(2-((2-chloro-6-morpholinopyridin-3-yl)oxy)acetyl)-2-methyl-5,6,7,8-tetrahydro-[1,3,4]thiadiazolo[2′,3′:2,3]imidazo[4,5-c]pyridin-5-yl)-N,N-dimethylthiazole-4-carboxamide]",14
13,"CCc1cc(F)ccc1OCC(=O)N1CCc2nc3sccn3c2C1c1ccc(OC)cc1F (stereo not drawn) [Example 6.3.4, 2-(2-ethyl-4-fluorophenoxy)-1-(5-(2-fluoro-4-methoxyphenyl)-7,8-dihydrothiazolo[2′,3′:2,3]-imidazo[4,5-c]pyridin-6(5H)-yl)ethanone]",8
14,"COc1ccc(C2c3c(nc4sccn34)CCN2C(=O)COc2ccc(Cl)cc2Cl)cc1OC (stereo not drawn) [Example 6.1.3, 2-(2,4-dichlorophenoxy)-1-(5-(3,4-dimethoxyphenyl)-7,8-dihydrothiazolo[2′,3′:2,3]imidazo[4,5-c]pyridin-6(5H)-yl)ethanone]",7
